Measurements as given in patent publication US12357624B2, “Low dose pridopidine for Parkinson's Disease and other diseases associated with parkinsonism” (PRILENIA NEUROTHERAPEUTICS LTD., priority 2019, dated 2025).
Read-outs that look alike come from different tables or passages of the source.

How the values were obtained:
[1] = tested on: 6-OHDA-lesioned mice
Method: The study was performed in male C57B16J mice weighing approx. 25 g and having an age of 8 to 9 weeks at the beginning of the experiments. A total of 65 wild-type mice and 52 S1R knockout (KO) mice were used. S1R knockout mice and wild-type littermates (both genders) were bred on a C57BL6J background. Our S1R KO line is derived from the well-characterized Sigmar1^Gt(OST422756)Lex mouse strain distributed by the Mutant Mouse Resource Regional Centre (MMRRC) The mice were housed under a 12-h light/dark cycle with free access to food and water.
Lesions were performed according to previously described procedures [Francardo V, Bez F, Wieloch T, Nissbrandt H, Ruscher K, Cenci 33. MA. […] Brain: A Journal of Neurology. […] 6-OHDA-HCl (Sigma-Aldrich AB, Stockholm, Sweden) was freshly dissolved in 0.02% ascorbate-saline at the concentration of 3.2 mg free base per milliliter. […] The solution was injected via a glass capillary (tip diameter−50 (1 m) at the rate of 0.5 (1 L/min, and the capillary was left in place for 2 mi after each injection.
The first injection was given immediately upon completion of lesion surgery. […] Forelimb use asymmetry during vertical exploration provides a validated measure of forelimb akinesia in hemiparkinsonian rodents [Lundblad M, Andersson M, Winkler C, Kirik D, Wierup N, Cenci M A. Pharmacological validation of behavioural measures of akinesia and dyskinesia in a rat model of Parkinson's disease. The European Journal of Neuroscience. […] The test was executed as in [Francardo V, Bez F, Wieloch T, Nissbrandt H, Ruscher K, Cenci 33. MA. […] The number of supporting wall contacts performed independently by the paw contralateral to the lesion was expressed as a percentage of all supporting wall contacts in each session.

[2] = tested on: TH immunostaining, ventrolateral and dorsolateral striatum
Description: Results were expressed as the total number of TH-immunopositive pixels per sample area (averaged across areas). […] The high-magnification analysis of TH fibers on random sample areas was complemented by optical density (O.D.) measurements of TH immunostaining across the entire dorsolateral and ventro-lateral striatum. Although this method is much less sensitive than the actual fiber analysis [Francardo V, Bez F, Wieloch T, Nissbrandt H, Ruscher K, Cenci 33. MA. […] Brain: A Journal of Neurology.
The O.D. analysis was carried out in the same rostrocaudal levels using NIH Image J Software, as described in [Francardo V, Recchia A, Popovic N, Andersson D, Nissbrandt H, Cenci M A. Impact of the lesion procedure on the profiles of motor impairment and molecular responsiveness to L-DOPA in the 6-hydroxydopamine mouse model of Parkinson's disease. Neurobiology of Disease.

[3] = tested on: GDNF, BDNF, phosphorylated ERK1/2; settings: 0.3 mg/kg, 35 days
Method: Animals prepared for Western blot analysis were euthanized by cervical dislocation; their brains were rapidly extracted and frozen on crushed dry ice. Tissue samples were dissected out in a cryostat chamber (−14° C.). […] The striatum was dissected out using a scalpel blade. Tissue samples from the substantia nigra were taken with a tissue puncher of 2 mm diameter spanning across rostrocaudal levels −2.70 to −3.80 relative to the bregma. The samples were kept frozen until further analysis.
Tissue homogenates were prepared in cell lysis buffer (20 mmol/LTris (pH 7.5), 150 mmol/L NaCl, 1 mmol/L EDTA, 1 mmol/L EGTA, 1% Triton X-100, 2.5 mmol/L sodium pyrophosphate, 1 mmol/L |3-glycerolphosphate, 1 mmol/L Na3VO4, […] leupeptin, and 1 mmol/L phenylmethylsulfonyl fluoride). Twenty micrograms of protein was separated on a 10% SDS polyacrylamide gel. […] Thereafter, membranes were incubated overnight at 4° C. using one of the following primary antibodies: rabbit polyclonal anti-GDNF (Santa Cruz Biotechnology, Inc., Santa Cruz, CA; 1:1000) and monoclonal anti-BDNF (Santa Cruz Biotechnology, Inc., 1:1000); rabbit polyclonal antibodies against Thr202/Tyr204-phosphorylated ERK1/2 (p44/42-MAPK; Cell Signaling Technology Inc., Danvers, MA, 1:2000). Following appropriate washing steps, membranes were incubated with HRP-linked secondary antibodies (Sigma-Aldrich, Deisenhofen, Germany; 1:15000). Signals were visualized using a chemiluminescence kit (Merck Millipore, Watford, Hertfordshire, UK), and images were acquired using a CCD camera (LAS1000 system, Fuji Films, Tokyo, Japan). Optical density was measured on specific immunoreactive bands using NIH Image J software. Membranes were then stripped and reprobed with |-actin antibodies (Sigma-Aldrich, 1:50,000). The optical density of specific bands was then normalized to the |-actin band in the same lane.

[4] = tested on: eIF2α-phosphorylation; settings: tested 0.03 to 150 μM
Description: The ratio of eIF2a-P to total eIF2a was quantified by immunoblot.

[5] = tested on: 6-OHDA-lesioned S1R KO mice; settings: 0.3 mg/kg, 5 weeks, vs saline
Description: The first injection was given immediately upon completion of lesion surgery. […] Full rotations (continuous turns of 360) were counted off-line by an experimentally blinded investigator. Data are expressed as the total number of net full turns ipsilateral to the lesion per test session.
The number of supporting wall contacts performed independently by the paw contralateral to the lesion was expressed as a percentage of all supporting wall contacts in each session. […]

[6] = tested on: wild-type motor neurons; settings: 0.1 μM, locally applied; cited from earlier work

SMILES: CCCN1CCC(c2cccc(S(C)(=O)=O)c2)CC1 [pridopidine, 4-[3-(methylsulfonyl)phenyl]-1-propyl-piperidine]
- cylinder test, contralateral forelimb use ([1]; 0.3 mg/kg s.c. daily): reaching levels of performance comparable with sham-control values on weeks 4 and 5
- cylinder test, contralateral forelimb use ([1]; 1.0 mg/kg s.c. daily): did not restore contralateral forelimb use in the cylinder test
- cylinder test, contralateral forelimb use, difference vs sham ([1]; 1.0 mg/kg s.c. daily, week 5): ~33%
- cylinder test, contralateral forelimb use, difference vs sham ([1]; week 1, pridopidine-treated mice (0.3 or 1.0 mg/kg)): ~40%
- TH O.D. vs saline ([2]; 0.3 mg/kg, dorsolateral striatum): significant, albeit smaller increase
- TH O.D. above saline control levels ([2]; 0.3 mg/kg, ventrolateral striatum): greater than twofold increase
- TH O.D. vs saline ([2]; 1 mg/kg, dorsolateral striatum): only a trend
- TH O.D. vs saline ([2]; 1 mg/kg, ventrolateral striatum): trend towards an increase that did not reach statistical significance
- striatal BDNF level vs saline ([3]; striatum): +80.8%
- striatal GDNF level vs saline ([3]; striatum): +37.6%
- striatal phosphorylated ERK1/2 vs saline ([3]; striatum): +71%
- BDNF level in the SN vs saline ([3]; substantia nigra): +88.5%
- GDNF level in the SN vs saline ([3]; substantia nigra): only BDNF levels showed a significant increase
- nigral phosphorylated ERK1/2 vs saline ([3]; substantia nigra): reached significance only in the striatum
- effective concentrations for reduction of eIF2α-P [4]: 0.03 to 3 µM
- spontaneous rotations and forelimb use asymmetry (cylinder test, stepping test) [5]: does not improve motor deficits
- mitochondria transport velocity in axons [6]: accelerates mitochondria transport in axons
